Measurements from patent US12643891B2, “SPAK/OSR inhibitors and methods of using same” (YALE UNIVERSITY, priority 2019, dated 2026).

Key:
GBM 612, GBM120 = test: Temozolomide IC50 in combination with (6a) in GBM cell lines; assay type: cell-based, human
From the text: FIG. 39 depicts that the IC50 values for temozolomide (TMZ) decrease 2-4 fold when used in combination (6a) in two different GBM cell lines (GBM 612, GBM120).

primary human astrocytes = test: Migration of primary human astrocytes; assay type: cell-based
GBM cells [1] = test: Cell cycle FACS analysis of GBM cell lines; assay type: cell-based, human; conditions: 2 μM
Procedure: FIG. 38A: Example cell cycle FACS data for 612 cells treated with 2 μM of (6a). FIG. 38B: Cell cycle analysis of GBM cell lines treated with 2 μM of (6a).

SPAK = target: T1, SPAK (Homo sapiens, UniProt Q9UEW8); test: In vitro SPAK ELISA assay monitoring NKCC1 phosphorylation (T^PNKCC1 antibody); assay type: biochemical; conditions: screening platform, FIG. 21; read-out: in vitro IC50
T1 construct: GST (N, cleaved yes); made in house; host or cells: E. coli EcAR7 with Sep-OTS

[2] = Formulation/tolerance test, intracranial, healthy tumor free mice; assay type: in vivo; conditions: 100 μM in DMSO/PEG formulation, intracranially
Procedure: FIG. 41 depicts treating healthy, tumor free, mice (ms_#) intracranially with a DMSO/PEG formulation containing vehicle or 100 μM (6a).

GBM cell lines [3] = test: Glioblastoma cell proliferation / viability (MTT); assay type: cell-based, human; conditions: FIG. 30
Procedure: Glioblastoma cells were plated in triplicates in 96-well plates at a cell density of 10,000 cells per well and incubated with increasing concentrations of (7a) inhibitor for 72 hs. Cell viability was determined by Thiazolyl Blue Tetrazolium Bromide (MTT) assay (Sigma) according to manufacturer instructions. IC50 was determined using GraphPad software by non-linear regression analysis (log (inh) vs. normalized response).

pancreatic cancer cells = test: Pancreatic cancer cell migration in vitro; assay type: cell-based; conditions: FIG. 36
GBM cell lines [4] = test: Annexin V apoptosis assay in GBM cell lines; assay type: cell-based, human; conditions: 1 μM, four GBM cell lines
Procedure: FIG. 37 depicts annexin V assays performed on four GBM cell lines after 1 μM of (6a) or vehicle control.

primary GBM cells = test: Nanogrooved pattern glioblastoma cell migration assay; assay type: cell-based, human; conditions: in vitro
Procedure: Cell culture: All primary cell lines were derived from intraoperative tissue samples from patients treated surgically for newly diagnosed glioblastoma multiforme without prior treatment. Primary cells were cultured in Dulbecco's Modified Eagle Medium: Nutrient Mixture F-12, B27 serum free supplement (Gibco), 20 ng/mL epidermal growth factor (EGF), and 20 ng/ml fibroblast-derived growth factor (FGF).
Nanogrooved pattern cell migration assay: Migration of glioma cells was quantified using a novel directional migration assay using nano-ridges/grooves of 400 nm in groove width, 400 nm in ridge width, and 500 nm in depth, constructed of transparent poly(urethane acrylate) (PUA), and fabricated using UV-assisted capillary lithography (Kim & Eberwine, 2010, Anal. Bioanl. Chem. 397:3173-3178). Cells were cultured on glass covered with a nanogrooved pattern substratum, which was previously glued onto the bottom surface of the custom-made Mat-tek dish (P35G-20-C). […] Cell migration was quantified using time-lapse microscopy using a motorized inverted microscope (Olympus IX81) equipped with a Cascade 512B II CCD camera and temperature and gas controlling environmental chamber. Phase-contrast and epi-fluorescent cell images were automatically recorded under 4*1.6× objective using the Slidebook 4.1 (Intelligent Imaging Innovations, Denver, CO) for 10 hours at 10 minute intervals. […]

PARP-1 = PARP-1 Western blot in GBM cells; assay type: cell-based, human; conditions: after 24 hs
Procedure: (§1) FIGS. 40A-40C depict that SPAK/OSR1 inhibition sensitizes GBM to radiation and decreases expression of DNA damage response genes. FIG. 40A: GBM cells were pre-treated for 24 hs with 1 μM (6a) or vehicle control and irradiated. After 72 hs, cells were re-plated to study clonogenicity. […] FIG. 40C: Expression of DNA damage response genes by RNAseq in cells treated with (6a) for 6 hs (dashed line delimits p<0.05).

[5] = test system: GMB intracranial xenograft; test: Human GBM intracranial xenograft mouse model; assay type: in vivo
From the text: FIGS. 32A-32B illustrate that (6a) reduces tumor growth in vivo in a human GMB intracranial xenograft mouse model. FIG. 32A: Schematic of the human GMB intracranial xenograft. FIG. 32B: Tumor growth profiles at two (6a) doses.

melanoma cells = test: Melanoma cell migration in vitro; assay type: cell-based; conditions: FIG. 35
GBM cells [6] = test: Clonogenicity of GBM cells after (6a) pre-treatment and irradiation; assay type: cell-based, human; conditions: 24 hs pre-treatment 1 μM, irradiated; 15 days after treatment
Procedure: as §1

In the case of `COc1ccc(Nc2ncc(C#N)c(Nc3ccccc3C(N)=O)n2)cc1N1CCN(C)CC1` [(6a), 2-((5-cyano-2-((4-methoxy-3-(4-methylpiperazin-1-yl)phenyl)amino)pyrimidin-4-yl)amino)benzamide], the “decrease of temozolomide (TMZ) IC50 in combination with (6a)” value (GBM 612, GBM120) is reported as 2-4 fold, the “activity on primary human astrocytes (migration)” value (primary human astrocytes) is reported as “not active” and the “cell cycle arrest in GBM cells” value (GBM cells [1]) is reported as “induces G2-M arrest”. For the same compound, the IC50 (SPAK) was roughly 60 nM, the tolerance [2] was “well tolerated” and the “proliferation and viability of primary GBM cell lines” value (GBM cell lines [3]) was “impedes proliferation and viability”. For the same compound, the “pancreatic cancer cell migration” value (pancreatic cancer cells) was “reduced”, the “apoptosis in GBM cell lines” value (GBM cell lines [4]) was “induces apoptosis” and the “migration of primary GBM cells” value (primary GBM cells) was “reduced migration of primary GBM cells”. The “full length PARP-1 level” value (PARP-1) was “decrease full length PARP-1”, the overall survival [5] was “extended overall survival” and the tumor growth [5] was “reduction in tumor growth”. For the same compound, the tumor volume [5] was “reduced tumor volume”, the melanoma cell migration (melanoma cells) was “reduced melanoma cell migration” and the “clonogenic potential after irradiation” value (GBM cells [6]) was “lowest in the combination treatment”.
